{"source": "patent US20160115200A1", "about": "“New Use for JNK Inhibitor Molecules for Treatment of Various Diseases” (XIGEN INFLAMMATION LTD., priority 2013, published 2016)", "key": {"human whole blood": {"test_system": "human whole blood", "assay": "Cytokine release in human whole blood stimulated 3 days with PHA-L or CD3/CD28 antibodies", "format": "cell-based", "conditions": "human whole blood, 1, 3, 10 μM", "method": "Whole blood from human healthy volunteers was collected using a venipuncture connected to a pre-labeled vacuum tube containing sodium citrate. Tubes are gently mixed by inversion 7-8 times; and are then kept at RT until stimulation. 350 μl of RPMI+P/S were added into 1.2 ml-96-well plate. 10 times concentrated of SEQ ID NO: 172 was prepared in RPMI+P/S (50 μl per well). 50 μl was added into 1.2 ml-96 well plates. 50 μl of whole blood was then added in each well where either medium alone or JNK inhibitor has been previously added. Whole blood was incubated at 37° C., 5% CO2 for 60 min. 50 μl/well of ligands diluted in RPMI+P/S was prepared, corresponding to the final dilution 10 times concentrated. After 60 min of incubation, ligand was added; wells were then mixed by pipetting up and down the blood. Whole blood was incubated for 3 days at 37° C. (wells were mixed by pipetting each well up and down once per day). At the end of incubation, plates were mixed and then centrifuged at 2500 rpm, 4° C. for 15 min in a pre-cooled centrifuge. Cytokine were then measured using standard Elisa kits. Results are expressed as pg/ml of supernatant of the measured cytokine.\nA similar experiment was carried out with slight modifications. In the case of […] stimulation, CD3 antibody was coated at 2 μg/mL in PBS overnight at 4° C. The day of experiment, wells were washed three times with PBS and left in PBS until use at 37° C. CD28 antibody was added 1 h after SEQ ID NO: 172 at final concentration of 2 μg/mL; supernatants were collected after 3 days of stimulation."}, "[1]": {"test_system": "endotoxins-induced uveitis albino rat model", "assay": "Endotoxins-induced uveitis (EIU), single intravenous injection, clinical scoring 24 h after LPS", "format": "in vivo", "set-up": "key to EIU clinical score, median: clinical score per eye, 0 to 4 scale", "conditions": "for EIU clinical score, mean±SEM / EIU clinical score, median: 24 hours after LPS", "method": "The aim of this study was to determine the effects of single intravenous injections of SEQ ID NO: 172 (0.015, 0.18, and 1.80 mg/kg) on the inflammatory response in an endotoxins-induced uveitis albino rat model and to compare these affects to those obtained with prior art JNK inhibitor of SEQ ID NO: 197 (2 mg/kg). As a further control served phosphate sodic dexamethasone.\nSixty (60) male Lewis rats were randomly divided into six (6) groups of ten (10) animals each. EIU was induced by footpad injection of lipopolysaccharide (LPS, 1 mg/kg). NaCl (0.9%), SEQ ID NO: 197 at 2 mg/kg and SEQ ID NO: 172 at three concentrations (1.80 mg/kg, 0.18 mg/kg and 0.015 mg/kg) were administered by intravenous injection. Phosphate sodic dexamethasone (20 μg/eye) was administered by sub-conjunctival injection in both eyes. 24 hours after LPS injection, inflammatory response was evaluated by clinical scoring.\nThe intensity of clinical ocular inflammation was scored on a scale from 0 to 4 for each eye: […]"}, "[2]": {"test_system": "mouse model of scopolamine-induced dry eye", "assay": "Scopolamine-induced dry eye in mice (TBUT, PRTT, histopathology)", "format": "in vivo", "conditions": "for TBUT mean nadir: TID topical ocular", "description": "The objective of this study was to assess the effects of two different compounds, the all-D-retro-inverso JNK-inhibitor (poly-)peptide of SEQ ID NO: 197 and the JNK inhibitor (poly-)peptide of SEQ ID NO: 172, at three dose levels in a mouse model of scopolamine-induced dry eye.\nThe study consisted of a total of 9 groups of female C57BL/6 mice, comprising 8 groups of 12 mice each and an additional group of 4 mice. Bilateral short-term dry eye was induced by a combination of scopolamine hydrobromide (Sigma-Aldrich Corp., St. Louis, Mo.) injection (subcutaneous (SC), four times daily, 0.5 mg/dose, Days 0-21) and by exposing mice to the drying environment of constant air draft. […] Mice of Group 9 were maintained as un-induced, (no dry eye) untreated controls.\nDuring the in-life (treatment) period, clinical observations were recorded once daily; slit-lamp examination (SLE) with corneal fluorescein staining, tear break-up time test (TBUT), and phenol red thread test (PRTT) were performed three times per week. Necropsies were performed on Day 22; eyes, eye lids, conjunctivae, and lacrimal glands were collected from both eyes of each animal. Tissues from the right eyes (oculus dexter, OD) were fixed and then evaluated microscopically. Tissues from the left eyes (oculus sinister; OS) were flash-frozen in liquid nitrogen and stored frozen at −80° C. for possible subsequent analyses.\nThe TBUT test was conducted three times weekly by measuring the time elapsed in seconds between a complete blink after application of fluorescein to the cornea and the appearance of the first random dry spot in the tear film. […] At least ninety seconds later, corneal epithelial damage was graded using a slit-lamp with a cobalt blue filter after another drop of 0.1% fluorescein was reapplied to the cornea; the cornea then was scored per the Draize ocular scale.\nTear production was measured three times a week in both eyes using PRTT test strips (Zone-Quick; Menicon, Nagoya, Japan). Prior to the first treatment of the day, a thread was applied to the lateral canthus of the conjunctival fornix of each eye for 30 seconds under slit-lamp biomicroscopy. Tear migration up the tread (i.e., the length of the wetted cotton thread) was measured using a millimeter scale.\nAt necropsy on Day 22, both eyes from each animal, including the globes, lacrimal glands, eyelids, and conjunctivae, were excised. The right eye and associated tissues were fixed by overnight submersion in modified Davidson's solution followed by transfer to 10% neutral buffered formalin (NBF). The fixed tissues of the right eye were dehydrated, embedded in paraffin, sectioned at 3 to 5-μm thicknesses, and slide-mounted tissues were stained with hematoxylin and eosin (H & E). Stained slides were evaluated via light microscopy. Detailed and complete histopathologic assessment was conducted on all parts of the eye, with at least two section levels being examined histopathologically for each right eye. Special attention was paid to the cornea, epithelia (including goblet cells) of the conjunctiva and cornea, as well as the lacrimal gland. These tissues were scored for injury based upon a 0-4 scale, with 0 being normal, 1 being minimal, 2 being mild, 3 being moderate, and 4 being severe. For each cornea, scores were based on corneal epithelium thickness, and corneal inflammation. Conjunctivae were scored for erosion and inflammation as well as presence or absence of goblet cells."}, "[3]": {"test_system": "established type II collagen arthritis in rats"}, "[4]": {"conditions": "SEQ ID NO: 172 0.01-5 mg/kg IV QD"}}, "note": "Square brackets hold non-standard residues; d marks the D form. Peptide text beside a SMILES is read from it."}
{"smiles": "CC(C)C[C@H](NC(=O)[C@H](CC(N)=O)NC(=O)[C@H](CC(C)C)NC(=O)[C@@H](NC(=O)[C@@H](C)NC(=O)[C@@H]1CCCN1C(=O)[C@H](CCCNC(=N)N)NC(=O)[C@@H](CCCCN)NC(=O)[C@@H]1CCCN1C(=O)[C@H](CCCNC(=N)N)NC(=O)[C@@H](CCCNC(=N)N)NC(=O)[C@H](CCCNC(=N)N)NC(=O)[C@H](CCCNC(=N)N)NC(=O)[C@H](CCC(N)=O)NC(=O)[C@@H](CCCNC(=N)N)NC(=O)[C@H](CCCNC(=N)N)NC(=O)[C@H](CCCCN)NC(=O)[C@H](CCCCN)NC(=O)[C@H](N)CCCNC(=N)N)[C@@H](C)O)C(=O)N[C@H](Cc1ccccc1)C(N)=O", "note": "[SEQ ID NO: 172, rKKRrQRRrRPkRPaTLNLf] (H-[dR]KKR[dR]QRR[dR]RP[dK]RP[dA]TLNL[dF]-NH2)", "values": [{"measurement": "CD3/CD28-induced TNF-α release", "setting": "human whole blood; CD3+/-CD28 antibodies 2 μg/mL", "result": "reduce the CD3/CD28-induced TNF-α release in a dose-dependent manner"}, {"measurement": "PHA-L-induced IL-2 release", "setting": "human whole blood; PHA-L 5 μg/mL", "result": "reduce the PHA-L-induced IL-2 release in a dose-dependent manner"}, {"measurement": "PHA-L-induced TNF-α release", "setting": "human whole blood; PHA-L 5 μg/mL", "result": "reduce the PHA-L-induced TNF-α release in a dose-dependent manner"}, {"measurement": "EIU clinical score, mean±SEM", "setting": "[1]; 0.015 mg/kg i.v.", "result": "2.3±0.3"}, {"measurement": "EIU clinical score, median", "setting": "[1]; 0.015 mg/kg i.v.", "result": 2}, {"measurement": "EIU clinical score, mean±SEM", "setting": "[1]; 0.18 mg/kg i.v.", "result": "2.4±0.3"}, {"measurement": "EIU clinical score, median", "setting": "[1]; 0.18 mg/kg i.v.", "result": 2}, {"measurement": "EIU clinical score, mean±SEM", "setting": "[1]; 1.80 mg/kg i.v.", "result": "2.1±0.3"}, {"measurement": "EIU clinical score, median", "setting": "[1]; 1.80 mg/kg i.v.", "result": 2}, {"measurement": "endotoxin-induced inflammation in the anterior chamber", "setting": "[1]; intravenously injected at 0.015, 0.18, 1.80 mg/kg", "result": "also reduced the endotoxin-induced inflammation in the anterior chamber"}, {"measurement": "TBUT mean nadir", "setting": "[2]; Day 7, high-dose 0.6% (Group 7)", "result": "6.7 ± 0.3", "unit": "s"}, {"measurement": "TBUT mean nadir", "setting": "[2]; Day 7, low-dose 0.05% (Group 5)", "result": "6.6 ± 0.4", "unit": "s"}, {"measurement": "TBUT mean nadir", "setting": "[2]; Day 7, mid-dose 0.2% (Group 6)", "result": "6.7 ± 0.4", "unit": "s"}, {"measurement": "TBUT mean peak", "setting": "[2]; Day 9, high-dose 0.6% (Group 7)", "result": "9.9 ± 0.8", "unit": "s"}, {"measurement": "TBUT mean peak", "setting": "[2]; Day 9, low-dose 0.05% (Group 5)", "result": "8.0 ± 0.4", "unit": "s"}, {"measurement": "TBUT mean peak", "setting": "[2]; Day 9, mid-dose 0.2% (Group 6)", "result": "10.0 ± 0.7", "unit": "s"}, {"measurement": "PRTT, aqueous tear production compared with cyclosporine", "setting": "[2]; Day 21, mid and high-dose (Groups 6 and 7)", "result": "therapeutic effects similar to cyclosporine"}, {"measurement": "TBUT means compared with vehicle group", "setting": "[2]; low, medium and high-dose, Groups 2, 3 and 4", "result": "above the vehicle group"}, {"measurement": "aqueous tear production (PRTT) compared with vehicle", "setting": "[2]; low, mid or high-dose SEQ ID NO: 172", "result": "significantly more aqueous tears compared to vehicle-treated animals"}, {"measurement": "histological cornea scores compared with cyclosporine group", "setting": "[2]; mid and high-dose SEQ ID NO: 172 (Groups 6, 7), high-dose SEQ ID NO: 197 (Group 4)", "result": "not significantly different than the cyclosporine group scores"}, {"measurement": "daily ankle diameter measurements vs disease controls", "setting": "[3]; 5 mg/kg IV QD, p<0.05 days 4-12", "result": "significantly (p<0.05 by 2-way RM ANOVA) reduced toward normal"}, {"measurement": "adverse effect on organ weights", "setting": "[3]; IV QD days 1-14", "result": "no adverse effect on organ weights"}, {"measurement": "relative spleen weights", "setting": "[3]; [4]", "result": "not significantly affected"}, {"measurement": "relative thymus weights", "setting": "[3]; [4]", "result": "not significantly affected"}]}
